EC50 data for 5 compounds are collected here from patent EP4596574A1, “GLP-1/GCG/GIP TRIPLE-RECEPTOR AGONIST AND USE THEREOF” (Sunshine Lake Pharma Co., Ltd., priority 2022, dated 2024).

Starred links: 1 amine or outer side, 2 acyl side, 3 side chain; linkers in the order of their positions; H or OH if unused. Non-standard residues stand in square brackets, D forms with d. Residues, ends and D or L forms follow the SMILES beside them. Groups on a side chain read outwards from the residue. *: point of attachment. C18 diacid = O=C(O)CCCCCCCCCCCCCCCCC(=O)*; αMePhe(2-F) = C[C@](N)(Cc1ccccc1F)C(=O)O; γGlu = O=C(O)[C@H](CCC(=O)[*:2])N[*:1]; AEEA = NCCOCCOCC(=O)O; Aib = CC(C)(N)C(=O)O

What all share (format): cell-based
The target in assay [1] is T1, GLP-1R (Homo sapiens, UniProt P43220).
T1 construct: expressed in transfected cells; host or cells: HEK293 (HEK293-GLP-1R)
The assay is described as follows: In vitro cell activity, cAMP production in HEK293 cells expressing GLP-1R. The following applies: HEK293-GLP-1R cells, cAMP; read-out: GLP-1R (EC50). The method, then: (§1) After they were completely thawed within 1.5 minutes, the cells were added dropwise into a 15 mL centrifuge tube containing 8 mL of warm culture medium in a clean bench. The tubes were centrifuged at 900 rpm for 5 minutes, the supernatant was discarded, and the cells were resuspended in 1 mL of complete culture medium (by pipetting 15 times). 20 µL of the suspension was immediately taken and mixed with an equal volume of trypan blue. 20 µL was taken to count the number of live cells, and the cells were diluted to 4×10^5 cells/mL with complete culture medium. • 4) The 384-well plate was divided into GLP-1R cell, GCGR cell and GIPR cell areas. The cell suspension was added to the wells of the corresponding area at 5 µL per well using a 12-channel variable-channel adjustable dispenser. […] Then, the diluted cAMP-d2 working solution and anti-cAMP-crytate working solution were mixed evenly in a ratio of 1:1, and 10 µL was added to each well of the sample group. The wells were covered with white lids and placed at room temperature in the dark for 1 hour or at 4 °C overnight. • 6) The fluorescence values at 665 nm and 620 nm were detected in a multifunctional microplate reader. In GraphPad Prism 6, the signal ratio and sample concentration were nonlinearly fitted using a four-parameter equation to obtain the EC50 value.
On the technique in general: Cyclic AMP is a second messenger, typically raised through Gs and lowered through Gi signalling.

The target of assay [2] is T2, GCGR (Homo sapiens, UniProt P47871).
T2 construct: expressed in transfected cells; host or cells: HEK293 (HEK293-GCGR)
The assay is described as follows: In vitro cell activity, cAMP production in HEK293 cells expressing GCGR. The following applies: HEK293-GCGR cells, cAMP; read-out: GCGR (EC50). The method, then:
as §1

Assay [3] deals with T3, GIPR (Homo sapiens, UniProt P48546).
T3 construct: expressed in transfected cells; host or cells: HEK293 (HEK293-GIPR)
T3 sequence (P48546 22-466): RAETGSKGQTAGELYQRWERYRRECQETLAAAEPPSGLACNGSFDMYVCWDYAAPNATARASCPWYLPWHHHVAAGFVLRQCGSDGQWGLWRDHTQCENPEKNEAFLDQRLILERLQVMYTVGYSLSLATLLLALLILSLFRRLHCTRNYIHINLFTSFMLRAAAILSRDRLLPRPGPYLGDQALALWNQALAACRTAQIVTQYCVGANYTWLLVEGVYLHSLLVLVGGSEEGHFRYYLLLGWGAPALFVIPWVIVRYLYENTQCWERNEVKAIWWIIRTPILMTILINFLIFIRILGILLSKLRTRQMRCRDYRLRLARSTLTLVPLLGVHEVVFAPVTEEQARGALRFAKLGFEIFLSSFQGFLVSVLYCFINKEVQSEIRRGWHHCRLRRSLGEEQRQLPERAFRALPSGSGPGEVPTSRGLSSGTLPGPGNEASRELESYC
The assay is described as follows: In vitro cell activity, cAMP production in HEK293 cells expressing GIPR. The following applies: HEK293-GIPR cells, cAMP; read-out: GIPR (EC50). The method, then: as §1, with “The wells were covered with white lids and placed at room temperature in the dark for 1 hour or at 4 °C overnight. • 6) The fluorescence values at 665 nm and 620 nm were detected in a multifunctional microplate reader.” left out

T2 sequence (P47871 26-477, species assumed): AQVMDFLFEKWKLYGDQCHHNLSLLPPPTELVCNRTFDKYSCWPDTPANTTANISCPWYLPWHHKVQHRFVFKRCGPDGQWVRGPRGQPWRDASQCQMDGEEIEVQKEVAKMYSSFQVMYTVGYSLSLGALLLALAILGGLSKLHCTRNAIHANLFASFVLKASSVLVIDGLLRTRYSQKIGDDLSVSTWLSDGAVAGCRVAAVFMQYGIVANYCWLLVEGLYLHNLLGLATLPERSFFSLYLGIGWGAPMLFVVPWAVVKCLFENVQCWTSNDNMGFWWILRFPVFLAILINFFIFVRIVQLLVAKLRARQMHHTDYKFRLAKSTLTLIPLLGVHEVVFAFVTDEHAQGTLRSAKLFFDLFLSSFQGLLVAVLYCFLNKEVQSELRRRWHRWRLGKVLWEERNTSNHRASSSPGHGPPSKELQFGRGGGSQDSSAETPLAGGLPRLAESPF
T1 sequence (P43220 24-463, species assumed): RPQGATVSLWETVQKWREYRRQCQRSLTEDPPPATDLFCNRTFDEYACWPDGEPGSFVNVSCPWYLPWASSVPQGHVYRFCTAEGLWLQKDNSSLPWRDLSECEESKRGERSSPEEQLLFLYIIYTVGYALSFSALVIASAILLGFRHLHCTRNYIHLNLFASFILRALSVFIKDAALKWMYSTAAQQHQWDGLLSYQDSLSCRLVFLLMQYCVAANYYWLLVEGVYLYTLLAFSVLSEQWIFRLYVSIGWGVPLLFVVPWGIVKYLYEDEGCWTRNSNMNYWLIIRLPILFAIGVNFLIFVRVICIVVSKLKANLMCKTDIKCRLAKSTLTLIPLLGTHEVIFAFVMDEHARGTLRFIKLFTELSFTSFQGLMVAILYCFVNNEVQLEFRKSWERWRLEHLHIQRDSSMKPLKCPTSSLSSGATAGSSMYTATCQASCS

Turning to `CC[C@H](C)[C@H](NC(=O)[C@H](Cc1ccccc1)NC(=O)[C@H](C)NC(=O)C(C)(C)NC(=O)[C@H](CCC(N)=O)NC(=O)[C@H](C)NC(=O)[C@H](CCCCNC(=O)COCCOCCNC(=O)CC[C@H](NC(=O)CCCCCCCCCCCCCCCCC(=O)O)C(=O)O)NC(=O)[C@H](CCC(=O)O)NC(=O)[C@H](CC(=O)O)NC(=O)[C@H](CC(C)C)NC(=O)[C@H](CC(C)C)NC(=O)[C@@H](NC(=O)[C@H](CO)NC(=O)[C@H](Cc1ccc(O)cc1)NC(=O)[C@H](CC(=O)O)NC(=O)[C@H](CO)NC(=O)[C@@H](NC(=O)[C@](C)(Cc1ccccc1F)NC(=O)[C@@H](NC(=O)CNC(=O)[C@H](CCC(N)=O)NC(=O)C(C)(C)NC(=O)[C@@H](N)Cc1ccc(O)cc1)[C@@H](C)O)[C@@H](C)O)[C@@H](C)CC)C(=O)N[C@@H](CCC(=O)O)C(=O)N[C@@H](Cc1ccc(O)cc1)C(=O)N[C@@H](CC(C)C)C(=O)N[C@@H](CC(C)C)C(=O)N[C@@H](C)C(=O)NCC(=O)NCC(=O)N1CCC[C@H]1C(=O)N[C@@H](CO)C(=O)N[C@@H](CO)C(=O)NCC(=O)N[C@@H](C)C(=O)N1CCC[C@H]1C(=O)N1CCC[C@H]1C(=O)N1CCC[C@H]1C(=O)N[C@@H](CO)C(N)=O` [HEC-PT108], the EC50 (commonly the concentration at which the effect is half-maximal) came out at 0.197 nM in assay [1], 0.864 nM in assay [2] and 0.054 nM in assay [3].

For `CC[C@H](C)[C@H](NC(=O)[C@H](Cc1ccccc1)NC(=O)[C@H](C)NC(=O)[C@H](CCC(N)=O)NC(=O)[C@H](CCC(N)=O)NC(=O)[C@H](CCCNC(=N)N)NC(=O)[C@H](CCCCNC(=O)COCCOCCNC(=O)CC[C@H](NC(=O)CCCCCCCCCCCCCCCCC(=O)O)C(=O)O)NC(=O)[C@H](CCC(=O)O)NC(=O)[C@H](CC(=O)O)NC(=O)[C@H](CC(C)C)NC(=O)[C@H](CC(C)C)NC(=O)[C@@H](NC(=O)[C@H](CO)NC(=O)[C@H](Cc1ccc(O)cc1)NC(=O)[C@H](CC(=O)O)NC(=O)[C@H](CO)NC(=O)[C@@H](NC(=O)[C@](C)(Cc1ccccc1F)NC(=O)[C@@H](NC(=O)CNC(=O)[C@H](Cc1c[nH]cn1)NC(=O)C(C)(C)NC(=O)[C@@H](N)Cc1ccc(O)cc1)[C@@H](C)O)[C@@H](C)O)[C@@H](C)CC)C(=O)N[C@@H](CCC(=O)O)C(=O)N[C@@H](Cc1ccc(O)cc1)C(=O)N[C@@H](CC(C)C)C(=O)N[C@@H](CC(C)C)C(=O)N[C@@H](CCC(=O)O)C(=O)NCC(=O)NCC(=O)N1CCC[C@H]1C(=O)N[C@@H](CO)C(=O)N[C@@H](CO)C(=O)NCC(=O)N[C@@H](C)C(=O)N1CCC[C@H]1C(=O)N1CCC[C@H]1C(=O)N1CCC[C@H]1C(=O)N[C@@H](CO)C(=O)O` [HEC-PT118], the EC50 is 1.2 nM in assay [1], 0.221 nM in assay [2] and 0.128 nM in assay [3].

On to `CC[C@H](C)[C@H](NC(=O)[C@H](Cc1ccccc1)NC(=O)[C@H](C)NC(=O)[C@H](CCC(N)=O)NC(=O)[C@H](CCC(N)=O)NC(=O)[C@H](C)NC(=O)[C@H](CCCCNC(=O)COCCOCCNC(=O)CC[C@H](NC(=O)CCCCCCCCCCCCCCCCC(=O)O)C(=O)O)NC(=O)[C@H](CCCNC(=N)N)NC(=O)[C@H](CC(=O)O)NC(=O)[C@H](CC(C)C)NC(=O)[C@H](CC(C)C)NC(=O)[C@@H](NC(=O)[C@H](CO)NC(=O)[C@H](Cc1ccc(O)cc1)NC(=O)[C@H](CC(=O)O)NC(=O)[C@H](CO)NC(=O)[C@@H](NC(=O)[C@](C)(Cc1ccccc1F)NC(=O)[C@@H](NC(=O)CNC(=O)[C@H](Cc1c[nH]cn1)NC(=O)C(C)(C)NC(=O)[C@@H](N)Cc1c[nH]cn1)[C@@H](C)O)[C@@H](C)O)[C@@H](C)CC)C(=O)N[C@@H](CCC(=O)O)C(=O)N[C@@H](Cc1ccc(O)cc1)C(=O)N[C@@H](CC(C)C)C(=O)N[C@@H](CC(C)C)C(=O)N[C@@H](C)C(=O)NCC(=O)NCC(=O)N1CCC[C@H]1C(=O)N[C@@H](CO)C(=O)N[C@@H](CO)C(=O)NCC(=O)N[C@@H](C)C(=O)N1CCC[C@H]1C(=O)N1CCC[C@H]1C(=O)N1CCC[C@H]1C(=O)N[C@@H](CO)C(=O)O` [HEC-PT153], for which the figures for the EC50 in assay [1], in assay [2] and in assay [3] were 0.0752 nM, 0.0126 nM and 0.0169 nM, respectively.

In the case of `CC[C@H](C)[C@H](NC(=O)[C@H](Cc1ccccc1)NC(=O)[C@H](C)NC(=O)[C@H](CCCNC(=N)N)NC(=O)[C@H](C)NC(=O)[C@H](CCCNC(=N)N)NC(=O)[C@H](CCCCNC(=O)COCCOCCNC(=O)CC[C@H](NC(=O)CCCCCCCCCCCCCCCCCCC(=O)O)C(=O)O)NC(=O)[C@H](CCC(=O)O)NC(=O)[C@H](CC(=O)O)NC(=O)[C@H](CC(C)C)NC(=O)[C@H](CC(C)C)NC(=O)[C@@H](NC(=O)[C@H](CO)NC(=O)[C@H](Cc1ccc(O)cc1)NC(=O)[C@H](CC(=O)O)NC(=O)[C@H](CO)NC(=O)[C@@H](NC(=O)[C@](C)(Cc1ccccc1F)NC(=O)[C@@H](NC(=O)CNC(=O)[C@H](CCC(N)=O)NC(=O)C(C)(C)NC(=O)[C@@H](N)Cc1ccc(O)cc1)[C@@H](C)O)[C@@H](C)O)[C@@H](C)CC)C(=O)N[C@@H](CCC(=O)O)C(=O)N[C@@H](Cc1ccc(O)cc1)C(=O)N[C@@H](CC(C)C)C(=O)N[C@@H](CC(C)C)C(=O)N[C@@H](C)C(=O)NCC(=O)NCC(=O)N1CCC[C@H]1C(=O)N[C@@H](CO)C(=O)N[C@@H](CO)C(=O)NCC(=O)N[C@@H](C)C(=O)N1CCC[C@H]1C(=O)N1CCC[C@H]1C(=O)N1CCC[C@H]1C(=O)N[C@@H](CO)C(=O)O` [HEC-PT88], the results for the EC50 in assay [1], in assay [2] and in assay [3] were 0.13 nM, 0.035 nM and 0.485 nM, respectively.

`CC[C@H](C)[C@H](NC(=O)[C@H](Cc1ccccc1)NC(=O)[C@H](C)NC(=O)[C@H](CCC(N)=O)NC(=O)[C@H](CCC(N)=O)NC(=O)[C@H](CCCNC(=N)N)NC(=O)[C@@H](NC(=O)[C@H](CCCCN)NC(=O)[C@H](CC(=O)O)NC(=O)[C@H](CCCCNC(=O)COCCOCCNC(=O)CC[C@H](NC(=O)CCCCCCCCCCCCCCCCC(=O)O)C(=O)O)NC(=O)[C@H](CC(C)C)NC(=O)[C@@H](NC(=O)[C@H](CO)NC(=O)[C@H](Cc1ccc(O)cc1)NC(=O)[C@H](CC(=O)O)NC(=O)[C@H](CO)NC(=O)[C@@H](NC(=O)[C@](C)(Cc1ccccc1F)NC(=O)[C@@H](NC(=O)CNC(=O)[C@H](CCC(N)=O)NC(=O)C(C)(C)NC(=O)[C@@H](N)Cc1ccc(O)cc1)[C@@H](C)O)[C@@H](C)O)[C@@H](C)CC)[C@@H](C)CC)C(=O)N[C@@H](CCC(=O)O)C(=O)N[C@@H](Cc1ccc(O)cc1)C(=O)N[C@@H](CC(C)C)C(=O)N[C@@H](CC(C)C)C(=O)N[C@@H](CCC(=O)O)C(=O)NCC(=O)NCC(=O)N1CCC[C@H]1C(=O)N[C@@H](CO)C(=O)N[C@@H](CO)C(=O)NCC(=O)N[C@@H](C)C(=O)N1CCC[C@H]1C(=O)N1CCC[C@H]1C(=O)N1CCC[C@H]1C(=O)N[C@@H](CO)C(N)=O` [HEC-PT143] (H-Y[Aib]QGT[αMePhe(2-F)]TSDYSILK([AEEA-γGlu-C18 diacid])DKIRQQAFIEYLLEGGPSSGAPPPS-NH2): the EC50 in assay [1] is 0.14 nM; in assay [2] it was 0.173 nM; in assay [3], 0.063 nM.
